From patent publication US12077503B2, “Substituted cyclic amides and their use as herbicides” (FMC CORPORATION, priority 2015, dated 2024)

What was measured:
Format in all cases: in vivo
[1] = test system: barnyardgrass (Echinochloa crus-galli); test: Test A preemergence; conditions: Echinochloa crus-galli, pre-emergence, 240 h, 0 to 100 scale where 0 is no effect and 100 is complete control, read-out: Barnyardgrass plant response rating
In short: (§1)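 Ratings of 0 (no effect) to 100 (complete control) come from visual comparison with untreated controls roughly 10 d after treatment. Test chemicals, formulated in a non-phytotoxic solvent mixture with surfactant, were applied either as a preemergence directed soil spray on seeded soil or postemergence to one- to two-leaf plants 2 to 10 cm tall.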

[2] = test system: pigweed (Amaranthus retroflexus); test: Test A preemergence; conditions: Amaranthus retroflexus, pre-emergence, 240 h, 0 to 100 scale where 0 is no effect and 100 is complete control, read-out: Pigweed plant response rating
[3] = test system: ragweed (common ragweed, Ambrosia elatior); test: Test A preemergence; conditions: Ambrosia artemisiifolia, pre-emergence, 240 h, 0 to 100 scale where 0 is no effect and 100 is complete control, read-out: Ragweed plant response rating
In short: as §1

Kochia (Kochia scoparia) [4] = test: Test A preemergence; conditions: Bassia scoparia, pre-emergence, 240 h, 0 to 100 scale where 0 is no effect and 100 is complete control, read-out: Kochia plant response rating
In short: as §1

[5] = test system: giant foxtail (Setaria faberii); test: Test A preemergence; conditions: Setaria faberi, pre-emergence, 240 h, 0 to 100 scale where 0 is no effect and 100 is complete control, read-out: Foxtail, Giant plant response rating
In short: as §1

[6] = test system: ryegrass, Italian (Italian ryegrass, Lolium multiflorum); test: Test A preemergence; conditions: Lolium multiflorum, pre-emergence, 240 h, 0 to 100 scale where 0 is no effect and 100 is complete control, read-out: Ryegrass, Italian plant response rating
In short: as §1

[7] = test system: barnyardgrass (Echinochloa crus-galli); test: Test B flooded paddy test; conditions: Echinochloa crus-galli, 250 g ai/ha, Flood; 0 to 100 scale where 0 is no effect and 100 is complete control; read-out: Barnyardgrass plant response rating
In short: (§2)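 Rating scale 0–100 (visual, vs untreated controls) after a 13–15 d greenhouse period; application to the flood layer, 3 cm above soil and maintained; plants at 2-leaf stage when treated.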

rice (Oryra sativa) = test: Test B flooded paddy test; conditions: Oryza sativa, 250 g ai/ha, Flood; 0 to 100 scale where 0 is no effect and 100 is complete control; read-out: Rice plant response rating
In short: as §2

[8] = test system: ducksalad (Heteranthera limosa); test: Test B flooded paddy test; conditions: Heteranthera limosa, 250 g ai/ha, Flood; 0 to 100 scale where 0 is no effect and 100 is complete control; read-out: Ducksalad plant response rating
In short: as §2

[9] = test system: sedge, umbrella (small-flower umbrella sedge, Cyperus difformis); test: Test B flooded paddy test; conditions: Cyperus difformis, 250 g ai/ha, Flood; 0 to 100 scale where 0 is no effect and 100 is complete control; read-out: Sedge, Umbrella plant response rating
In short: as §2

[10] = test system: wheat (Triticum aestivum); test: Test A postemergence; conditions: Triticum aestivum, post-emergence, 240 h
In short: as §1

[11] = test system: barnyardgrass (Echinochloa crus-galli); test: Test A postemergence; conditions: Echinochloa crus-galli, post-emergence, 240 h
In short: as §1

[12] = test system: pigweed (Amaranthus retroflexus); test: Test A postemergence; conditions: Amaranthus retroflexus, post-emergence, 240 h
In short: as §1

[13] = test system: ragweed (common ragweed, Ambrosia elatior); test: Test A postemergence; conditions: Ambrosia artemisiifolia, post-emergence, 240 h
In short: as §1

[14] = test system: blackgrass (Alopecurus myosuroides); test: Test A postemergence; conditions: Alopecurus myosuroides, post-emergence, 240 h
In short: as §1

[15] = test system: Galium (catchweed bedstraw, Galium aparine); test: Test A postemergence; conditions: Galium, post-emergence, 240 h
In short: as §1

corn (Zea mays) = test: Test A postemergence; conditions: Zea mays, post-emergence, 240 h
In short: as §1

Kochia (Kochia scoparia) [16] = test: Test A postemergence; conditions: Bassia scoparia, post-emergence, 240 h
In short: as §1

[17] = test system: giant foxtail (Setaria faberii); test: Test A postemergence; conditions: Setaria faberi, post-emergence, 240 h
In short: as §1

[18] = test system: ryegrass, Italian (Italian ryegrass, Lolium multiflorum); test: Test A postemergence; conditions: Lolium multiflorum, post-emergence, 240 h
In short: as §1

[19] = 125 g ai/ha, preemergence, approx. 10 d

O=C1NC[C@H](c2ccc(C(F)(F)F)cn2)[C@H]1C(=O)Nc1cccc(F)c1F [Compound 1104]
0%: pest or weed control at 31 g/ha ([1]; 31 g ai/ha, Preemergence) | pest or weed control at 31 g/ha ([2]; 31 g ai/ha, Preemergence) | pest or weed control at 125 g/ha [2, 19] | pest or weed control at 31 g/ha ([3]; 31 g ai/ha, Preemergence) | pest or weed control at 125 g/ha [3, 19] | pest or weed control at 31 g/ha (Kochia (Kochia scoparia) [4]; 31 g ai/ha, Preemergence) | pest or weed control at 125 g/ha (Kochia (Kochia scoparia) [4]; [19]) | pest or weed control at 31 g/ha ([5]; 31 g ai/ha, Preemergence) | pest or weed control at 31 g/ha ([6]; 31 g ai/ha, Preemergence) | pest or weed control at 125 g/ha [6, 19] | pest or weed control at 250 g/ha [9] | plant injury at 125 g/ha ([10]; 125 g ai/ha, postemergence, visual injury on 0 to 100 scale (0 no effect, 100 complete control), approx. 10 d, read-out: Wheat plant response rating) | plant injury at 31 g/ha ([10]; Postemergence, 31 g ai/ha, visual injury after approx. 10 d, 0 to 100 scale, 0 no effect, 100 complete control, read-out: Plant response rating, Wheat) | pest or weed control at 31 g/ha ([11]; Postemergence, 31 g ai/ha, visual injury after approx. 10 d, 0 to 100 scale, 0 no effect, 100 complete control, read-out: Plant response rating, Barnyardgrass) | pest or weed control at 125 g/ha ([12]; 125 g ai/ha, postemergence, visual injury on 0 to 100 scale (0 no effect, 100 complete control), approx. 10 d, read-out: Pigweed plant response rating) | pest or weed control at 31 g/ha ([12]; Postemergence, 31 g ai/ha, visual injury after approx. 10 d, 0 to 100 scale, 0 no effect, 100 complete control, read-out: Plant response rating, Pigweed) | pest or weed control at 125 g/ha ([13]; 125 g ai/ha, postemergence, visual injury on 0 to 100 scale (0 no effect, 100 complete control), approx. 10 d, read-out: Ragweed plant response rating) | pest or weed control at 31 g/ha ([13]; Postemergence, 31 g ai/ha, visual injury after approx. 10 d, 0 to 100 scale, 0 no effect, 100 complete control, read-out: Plant response rating, Ragweed) | pest or weed control at 125 g/ha ([14]; 125 g ai/ha, postemergence, visual injury on 0 to 100 scale (0 no effect, 100 complete control), approx. 10 d, read-out: Blackgrass plant response rating) | pest or weed control at 31 g/ha ([14]; Postemergence, 31 g ai/ha, visual injury after approx. 10 d, 0 to 100 scale, 0 no effect, 100 complete control, read-out: Plant response rating, Blackgrass) | pest or weed control at 125 g/ha ([15]; 125 g ai/ha, postemergence, visual injury on 0 to 100 scale (0 no effect, 100 complete control), approx. 10 d, read-out: Galium plant response rating) | pest or weed control at 31 g/ha ([15]; Postemergence, 31 g ai/ha, visual injury after approx. 10 d, 0 to 100 scale, 0 no effect, 100 complete control, read-out: Plant response rating, Galium) | plant injury at 125 g/ha (corn (Zea mays); 125 g ai/ha, postemergence, visual injury on 0 to 100 scale (0 no effect, 100 complete control), approx. 10 d, read-out: Corn plant response rating) | Corn plant response rating (crop injury, 0 = no effect, 100 = complete kill) at 31 g/ha (corn (Zea mays); Postemergence, 31 g ai/ha, visual injury after approx. 10 d, 0 to 100 scale, 0 no effect, 100 complete control) | pest or weed control at 125 g/ha (Kochia (Kochia scoparia) [16]; 125 g ai/ha, postemergence, visual injury on 0 to 100 scale (0 no effect, 100 complete control), approx. 10 d, read-out: Kochia plant response rating) | pest or weed control at 31 g/ha (Kochia (Kochia scoparia) [16]; Postemergence, 31 g ai/ha, visual injury after approx. 10 d, 0 to 100 scale, 0 no effect, 100 complete control, read-out: Plant response rating, Kochia) | pest or weed control at 125 g/ha ([17]; 125 g ai/ha, postemergence, visual injury on 0 to 100 scale (0 no effect, 100 complete control), approx. 10 d, read-out: Foxtail, Giant plant response rating) | pest or weed control at 31 g/ha ([17]; Postemergence, 31 g ai/ha, visual injury after approx. 10 d, 0 to 100 scale, 0 no effect, 100 complete control, read-out: Plant response rating, Foxtail, Giant) | pest or weed control at 125 g/ha ([18]; 125 g ai/ha, postemergence, visual injury on 0 to 100 scale (0 no effect, 100 complete control), approx. 10 d, read-out: Ryegrass, Italian plant response rating) | pest or weed control at 31 g/ha ([18]; Postemergence, 31 g ai/ha, visual injury after approx. 10 d, 0 to 100 scale, 0 no effect, 100 complete control, read-out: Plant response rating, Ryegrass, Italian)
70%: pest or weed control at 125 g/ha [5, 19]
20%: pest or weed control at 250 g/ha (rice (Oryra sativa))
40%: pest or weed control at 250 g/ha [7]
100%: pest or weed control at 250 g/ha [8]
30%: pest or weed control at 125 g/ha ([11]; 125 g ai/ha, postemergence, visual injury on 0 to 100 scale (0 no effect, 100 complete control), approx. 10 d, read-out: Barnyardgrass plant response rating)
50%: pest or weed control at 125 g/ha [1, 19]
